Measured values published in patent publication US20250051279A1, “TRYPTAMINE COMPOSITIONS AND METHODS” (priority 2022, published 2025).

Key:
[1] = oral; cited from earlier work
[2] = Salt form assessment (crystallization propensity, DSC/XRPD physical properties, appearance, counter-ion acceptability, salt suitability); format: physicochemical; design: key: “+/+/+” indicates most favorable; “+/+” indicates more favorable; “+” indicates favorable; “−” indicates unfavorable; “−/−” indicates more unfavorable; “−/−/−” indicates most unfavorable; conditions: for Physical properties (crystallinity, melt, enthalpy, polymorph tendency): DSC, XRPD; for Crystallization propensity: crystallization from ethanol
Method: Samples were analyzed by differential scanning calorimetry (DSC), X-ray powder diffraction (XRPD), and dynamic vapor sorption (DVS). In addition, the appearance and visual properties of each sample were assessed, in addition to propensity for crystallization.
A summary of the data obtained from the analyses of the individual salt forms of Examples 1-9 are presented in Table 10, with advantageous and detrimental properties summarized using the following nomenclature: “+/+/+” indicates most favorable; “+/+” indicates more favorable; “+” indicates favorable; “−” indicates unfavorable; “−/−” indicates more unfavorable; “−/−/−” indicates most unfavorable.

[3] = Dynamic vapor sorption (DVS) hygroscopicity; format: physicochemical; design: key to Hygroscopicity: “+/+/+” indicates most favorable; “+/+” indicates more favorable; “+” indicates favorable; “−” indicates unfavorable; “−/−” indicates more unfavorable; “−/−/−” indicates most unfavorable; conditions: for physical form conversion throughout the DVS cycle: DVS cycle 0-95% RH; for hygroscopicity (in words): DVS isotherm; for acquisition of water on exposure to elevated relative humidities: >95% RH
Source text: Pharmaceutically acceptable salts of the compound of Formula (I) suitable for pharmaceutical manufacture may also be characterized as non-hygroscopic or slightly hygroscopic, preferably non-hygroscopic. The hygroscopicity may be measured herein by performing a moisture adsorption-desorption isotherm using a dynamic vapor sorption (DVS) analyzer with a starting exposure of 30% relative humidity (RH), increasing humidity up to 95% RH, decreasing humidity to 0%, and finally increasing the humidity back to the starting 30% RH, and classified according to the following: • non-hygroscopic: <0.2%; slightly hygroscopic: ≥0.2% and <2%; hygroscopic: ≥2% and <15%; very hygroscopic: ≥15%; deliquescent: sufficient water is absorbed to form a liquid; all values measured as weight increase (w/w due to acquisition of water) at >95% RH and 25° C.
Dynamic vapor sorption-desorption experiments were carried out using a DVS Resolution instrument supplied by Surface Measurement Systems. Data were acquired using the following acquisition parameters: • Solvent; Water • Start relative humidity; 30% RH • Relative humidity cycle (% RH); 30, 40, 50, 60, 70, 80, 90, 95, 90, 80, 70, 60, 50, 40, 30, 20, 10, 0, 10, 20, 30 • Equilibrium condition (dm/dt); 0.002%/minute • Equilibrium condition window; 10 minutes • Minimum stage period; 5 minutes • Maximum stage period; 360 minutes • Temperature; 25° C. • Carrier gas; Nitrogen • Carrier gas flow rate; 200 mL·min^−1 (Total)
Typically, 20-50 mg of the test substance was mounted in a gauze basket and transferred to the sample port. Excess static electricity was removed throughout sample handling and sample mounting using a ^210Po static eliminator. Instrument performance checks were completed using traceable samples of sodium chloride and lithium chloride. For selected samples, the cycle was repeated using the same sample to assess any change in physical form induced on exposure to elevated relative humidity.

[4] = prolonged storage; cited from earlier work

| SMILES | orally active dose (lowest) [1] [µg] | very strong psychedelic doses [1] [µg] | Appearance [2] | Physical properties (crystallinity, melt, enthalpy, polymorph tendency) [2] | Crystallization propensity [2] | Hygroscopicity ([3]; DVS) | physical form conversion throughout the DVS cycle [3] | hygroscopicity (in words) [3] | acquisition of water on exposure to elevated relative humidities ([3]; DVS, 25° C.) [% w/w] | water uptake ([3]; DVS, 25° C., on exposure to 95% RH) | behavior at elevated relative humidities ([3]; DVS) | water uptake at relative humidities exceeding 80% ([3]; DVS, >80% RH) | equilibrium water content ([3]; DVS, typical ambient relative humidities) [%] | storage sensitivity [4] |
| --- | --- | --- | --- | --- | --- | --- | --- | --- | --- | --- | --- | --- | --- | --- |
| COc1cc(CCNCc2ccccc2OC)c(OC)cc1Cl [2C—C-NBOMe, 2-(4-Chloro-2,5-dimethoxyphenyl)-N-[(2-methoxyphenyl)methyl]ethan-1-amine] | ≥ 25 | 500 to 700 |  |  |  |  |  |  |  |  |  |  |  |  |
| CN(C)CCc1c[nH]c2ccccc12 [Example 1, 2-(1H-indol-3-yl)-N,N-dimethylethan-1-amine] |  |  | +/+/+ | +/+/+ | +/+/+ | +/+/+ | no evidence of physical form conversion | no significant hygroscopicity | < 0.2 |  |  |  |  |  |
| CN(C)CCc1c[nH]c2ccccc12 [Example 2, 2-(1H-indol-3-yl)-N,N-dimethylethan-1-amine] |  |  | +/+/+ | +/+/+ | +/+/+ | +/+/+ | no evidence of physical form conversion | no significant hygroscopicity | < 0.05 |  |  |  |  |  |
| CN(C)CCc1c[nH]c2ccccc12 [Example 3, 2-(1H-indol-3-yl)-N,N-dimethylethan-1-amine] |  |  | +/+/+ | +/+/+ | + | +/+/+ | no evidence of physical form conversion | no significant hygroscopicity | < 0.06 |  |  |  |  |  |
| CN(C)CCc1c[nH]c2ccccc12 [Example 4, 2-(1H-indol-3-yl)-N,N-dimethylethan-1-amine] |  |  | +/+/+ | +/+/+ | − | +/+/+ | no evidence of physical form conversion | no significant hygroscopicity | < 0.5 |  |  |  |  |  |
| CN(C)CCc1c[nH]c2ccccc12 [Example 5, 2-(1H-indol-3-yl)-N,N-dimethylethan-1-amine] |  |  | +/+ | +/+ | + | − |  |  |  | approximately 3 % w/w |  |  |  |  |
| CN(C)CCc1c[nH]c2ccccc12 [Example 6, 2-(1H-indol-3-yl)-N,N-dimethylethan-1-amine] |  |  | +/+/+ | +/+ | − | −/−/− |  |  |  |  | deliquesce |  |  |  |
| CN(C)CCc1c[nH]c2ccccc12 [Example 7, 2-(1H-indol-3-yl)-N,N-dimethylethan-1-amine] |  |  | − | −/− | − | −/−/− | a phase change was induced |  |  |  |  | excessive | > 3 |  |
| CN(C)CCc1c[nH]c2ccccc12 [Example 8, 2-(1H-indol-3-yl)-N,N-dimethylethan-1-amine] |  |  | − | −/− | − | −/−/− |  |  |  |  | deliquesce |  |  |  |
| CN(C)CCc1c[nH]c2ccccc12 [Example 9, 2-(1H-indol-3-yl)-N,N-dimethylethan-1-amine] |  |  | − | −/− | − | −/−/− |  |  |  |  |  |  |  |  |
| CN(C)CCc1c[nH]c2ccccc12 [Example I-1, 2-(1H-indol-3-yl)-N,N-dimethylethan-1-amine] |  |  |  |  |  |  |  |  |  |  |  |  |  | sensitive to oxygen, heat, and light |
